Results as given in patent publication US20260103465A1, “GLYCOGEN SYNTHASE KINASE 3 INHIBITORS AND USES THEREOF” (The Broad Institute, Inc., priority 2023, published 2026).
Like-named read-outs stand apart in the source and are kept apart here. Blank lines part the entries; values can stand above or below the compound they belong to.

How the values were obtained:
[1] = biological target: T1, GSK3b (GST-full length GSK3b) (Homo sapiens, UniProt P49841); test: GSK3b TR-FRET kinase inhibition assay; assay type: biochemical
T1 construct: GST-full length GSK3b: [SignalChem G08-9G]; purchased SignalChem G08-9G
Protocol: (§1) TR-FRET assay was performed in a white, 384 well, low volume, flat bottom plate (Grenier). After a 30 minute preincubation in assay buffer with the indicated concentration of compound, the kinase activity was initiated by the addition of the substrates. 1 nM GSK3a (GST-full length GSK3a [SignalChem G08-10G]) or 1 nM GSK3b (GST-full length GSK3b: [SignalChem G08-9G]) were then incubated at ambient temperature for 100 minutes in 10 μl of 50 mM Tris, pH 7.5, 20 mM MgCl2, 0.05 mM DTT, 100 μg/ml BSA and 1% DMSO, with 200 nM biotinylated peptide substrate (biotinylated and S645 phosphorylated glycogen synthase 631-650) and ATP (e.g., at 2 μM, 4 μM, 10 μM, 100 μM, or 1 mM). The kinase activity was quenched with 2 μl of 250 mM EDTA. A 10 μl volume of 40 nM Strepavidin-d2, 2 nM […] antibody in TR-FRET Detection Buffer (Invitrogen) was then added. After 60 min at room temperature the plate was read on Envision plate reader using Ex: 340 nm, Em: 615 nm and […]. The normalized 665/615 Signal ratio versus log compound concentration was analyzed by XLFIT to yield IC50 values.

[2] = biological target: T2, GSK3a (GST-full length GSK3a) (Homo sapiens, UniProt P49840); test: GSK3a TR-FRET kinase inhibition assay; assay type: biochemical
T2 construct: GST-full length GSK3a [SignalChem G08-10G]; purchased SignalChem G08-10G
Protocol: as §1

[3] = 1 mM ATP, Table 5, read-out: GSK3β TR-FRET 1 mM ATP Average IC50
[4] = 1 mM ATP, Table 5, read-out: GSK3α TR-FRET 1 mM ATP Average IC50
[5] = 2 μM ATP, read-out: GSK3β TR-FRET 2 μM ATP GMean IC50
[6] = 4 μM ATP, read-out: GSK3α TR-FRET 4 μM ATP GMean IC50
[7] = 1 mM ATP, Table 3, read-out: GSK3b TR-FRET 1 mM ATP Average IC50
[8] = 1 mM ATP, Table 3, read-out: GSK3a TR-FRET 1 mM ATP Average IC50
[9] = 100 μM ATP, read-out: GSK3b 100 μM ATP Average IC50
[10] = 100 μM ATP, read-out: GSK3a 100 μM ATP Average IC50

T1 sequence (P49841 whole entry): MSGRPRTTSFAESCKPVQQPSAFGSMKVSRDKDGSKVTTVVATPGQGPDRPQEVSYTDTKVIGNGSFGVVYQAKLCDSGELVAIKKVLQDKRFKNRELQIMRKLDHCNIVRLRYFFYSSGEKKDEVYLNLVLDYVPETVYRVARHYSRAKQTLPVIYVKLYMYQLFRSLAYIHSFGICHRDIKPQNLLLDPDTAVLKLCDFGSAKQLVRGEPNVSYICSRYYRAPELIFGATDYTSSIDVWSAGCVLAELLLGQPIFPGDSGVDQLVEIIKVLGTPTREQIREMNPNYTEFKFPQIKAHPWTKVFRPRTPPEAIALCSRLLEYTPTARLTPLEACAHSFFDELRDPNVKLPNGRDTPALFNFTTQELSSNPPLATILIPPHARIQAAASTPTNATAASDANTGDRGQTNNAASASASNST
T2 sequence (P49840 whole entry): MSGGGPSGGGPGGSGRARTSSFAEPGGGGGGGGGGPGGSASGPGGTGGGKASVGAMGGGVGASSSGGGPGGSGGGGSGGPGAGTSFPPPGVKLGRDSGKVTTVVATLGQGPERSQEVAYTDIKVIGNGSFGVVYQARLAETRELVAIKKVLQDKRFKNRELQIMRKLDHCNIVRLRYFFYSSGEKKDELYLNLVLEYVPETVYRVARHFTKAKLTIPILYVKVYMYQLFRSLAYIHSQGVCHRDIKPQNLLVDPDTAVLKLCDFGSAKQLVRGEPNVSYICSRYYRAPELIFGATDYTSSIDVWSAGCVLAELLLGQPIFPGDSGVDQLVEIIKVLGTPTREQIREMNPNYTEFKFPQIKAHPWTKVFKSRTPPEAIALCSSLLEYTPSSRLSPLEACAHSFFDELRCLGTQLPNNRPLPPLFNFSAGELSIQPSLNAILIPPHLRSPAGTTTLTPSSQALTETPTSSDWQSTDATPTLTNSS

IC50 [1, 3]: 5 to 20 µM
IC50 [2, 4]: 5 to 20 µM
Structure (SMILES): CC1(C)CC(=O)C2=C(C1)Nc1ncc(C(F)(F)F)cc1C2(C)c1cccc(C(F)F)c1 (single isomer, unassigned) [646A]

IC50 [1, 5]: 1 to 5 µM
IC50 [2, 6]: 1 to 5 µM
Structure (SMILES): CCC1(c2cccc(-c3ccncc3OC)c2)C2=C(CC(C)(C)CC2=O)Nc2ncc(F)cc21 (single isomer, unassigned) [Compound 1037A]

IC50 [1, 7]: 1 to 5 µM
IC50 [2, 8]: 1 to 5 µM
Structure (SMILES): CC1(C)CC(=O)C2=C(C1)Nc1nccc(CC3CC3)c1C2(C)c1ccccc1 (single isomer, unassigned) [Compound 123A]

IC50 [1, 9]: 5 to 20 µM
IC50 [1, 7]: 5 to 20 µM
IC50 [2, 10]: 5 to 20 µM
IC50 [2, 8]: 5 to 20 µM
Structure (SMILES): CC1(C)CC(=O)C2=C(C1)Nc1ncc(C(C)(C)C)cc1C2(C)c1ccccc1 (single isomer, unassigned) [Compound 124A]

IC50 [1, 7]: 5 to 20 µM
IC50 [2, 8]: 5 to 20 µM
Structure (SMILES): CC1(C)CC(=O)C2=C(C1)Nc1ncc(Br)c(F)c1C2(C)c1ccccc1 (single isomer, unassigned) [Compound 140B]

IC50 [1, 5]: 1 to 5 µM
IC50 [2, 6]: 0.1 to 1 µM
Structure (SMILES): CCC1(c2ccccc2)C2=C(CC(C)(C)CC2=O)Nc2ncc(F)cc21 (single isomer, unassigned) [114 B]

IC50 [1, 5]: 1 to 5 µM
IC50 [2, 6]: 1 to 5 µM
Structure (SMILES): CCC1(c2cccc(-c3ccnc(C)c3C)c2)C2=C(CC(C)(C)CC2=O)Nc2ncc(F)cc21 (single isomer, unassigned) [Compound 1035A]

IC50 [1, 3]: 5 to 20 µM
IC50 [2, 4]: 5 to 20 µM
Structure (SMILES): COc1cnc2c(c1C1CC1)C(C)(c1ccccc1)C1=C(CC(C)(C)CC1=O)N2 (single isomer, unassigned) [626A]

IC50 [1, 3]: ≤ 0.1 µM
IC50 [2, 4]: ≤ 0.1 µM
Structure (SMILES): CN1C(=O)C2=C(CC1(C)C)Nc1ncc(F)c(C#N)c1C2(C)c1ccccc1 (single isomer, unassigned) [615B]

IC50 [1, 3]: 1 to 5 µM
IC50 [2, 4]: 1 to 5 µM
Structure (SMILES): CC1(C)CC2=C(C(=O)N1)C(C)(c1ccccc1)c1c(ncc(F)c1C#N)N2 (single isomer, unassigned) [604A]

IC50 [1, 3]: 0.1 to 1 µM
IC50 [2, 4]: 0.1 to 1 µM
Structure (SMILES): CC1(C)CC(=O)C2=C(Nc3ncc(F)c(C#N)c3[C@@]2(C)c2ccccc2)[C@H]1F (single isomer, unassigned) [Compound 617D]

IC50 [1, 7]: 5 to 20 µM
IC50 [2, 8]: 5 to 20 µM
Structure (SMILES): CC1(C)CC(=O)C2=C(C1)Nc1ncc(C(C)(C)C)cc1C2(C)c1ccccc1 (single isomer, unassigned) [Compound 124B]

IC50 [1, 3]: 5 to 20 µM
IC50 [2, 4]: 5 to 20 µM
Structure (SMILES): Cn1ncc2c3c(ncc21)NC1=C(C(=O)CC(C)(C)C1)C3(C)c1ccccc1 (single isomer, unassigned) [609A]

IC50 [1, 7]: 5 to 20 µM
IC50 [2, 8]: 5 to 20 µM
Structure (SMILES): CC1(C)CC(=O)C2=C(C1)Nc1ncc(F)cc1C2(C)c1cccc(S(C)(=O)=O)c1 (single isomer, unassigned) [Compound 139B]

IC50 [1, 5]: 1 to 5 µM
IC50 [2, 6]: 1 to 5 µM
Structure (SMILES): CCC1(c2cccc(-c3ccnc(C)c3C)c2)C2=C(CC(C)(C)CC2=O)Nc2ncc(F)cc21 (single isomer, unassigned) [Compound 1035B]

IC50 [1, 3]: 5 to 20 µM
IC50 [2, 4]: 5 to 20 µM
Structure (SMILES): Cc1cnc2c(c1C#N)C(C)(c1ccccc1)C1=C(CC(C)(C)CC1=O)N2 (single isomer, unassigned) [603A]

IC50 [1, 3]: 1 to 5 µM
IC50 [2, 4]: 1 to 5 µM
Structure (SMILES): CN(c1cccc(C2(C)C3=C(CC(C)(C)CC3=O)Nc3ncccc32)c1)c1ncccn1 (single isomer, unassigned) [641B]

IC50 [1, 7]: 5 to 20 µM
IC50 [2, 8]: 5 to 20 µM
Structure (SMILES): CC1(C)CC(=O)C2=C(C1)Nc1ncc(C(F)(F)F)c(F)c1C2(C)c1ccccc1 (single isomer, unassigned) [Compound 136A]

IC50 [1, 3]: 0.1 to 1 µM
IC50 [2, 4]: 0.1 to 1 µM
Structure (SMILES): CC1(C)CC(=O)C2=C(C1)Nc1ncc(C#N)c(C#N)c1C2(C)c1ccccc1 (single isomer, unassigned) [605A]

IC50 [1, 5]: 0.1 to 1 µM
IC50 [2, 6]: ≤ 0.1 µM
Structure (SMILES): CCC1(c2cccc(-c3cn(C)nc3C)c2)C2=C(CC(C)(C)CC2=O)Nc2ncc(F)cc21 (single isomer, unassigned) [Compound 1032A]

IC50 [1, 3]: 5 to 20 µM
IC50 [2, 4]: 5 to 20 µM
Structure (SMILES): CCc1cnc2c(c1C#N)C(C)(c1ccccc1)C1=C(CC(C)(C)CC1=O)N2 (single isomer, unassigned) [608B]

IC50 [1, 3]: 1 to 5 µM
IC50 [2, 4]: 5 to 20 µM
Structure (SMILES): COc1cnc2c(c1C1CC1)C(C)(c1ccccc1)C1=C(CC(C)(C)CC1=O)N2 (single isomer, unassigned) [626B]

IC50 [1, 7]: 1 to 5 µM
IC50 [2, 8]: 5 to 20 µM
Structure (SMILES): Cc1nn(C)c(C)c1-c1cccc(C2(C)C3=C(CC(C)(C)CC3=O)Nc3ncc(C(F)(F)F)cc32)c1 (single isomer, unassigned) [Compound 170B]

IC50 [1, 3]: 5 to 20 µM
IC50 [2, 4]: 5 to 20 µM
Structure (SMILES): CC1(C)CC(=O)C2=C(C1)Nc1ncc(F)c(C#N)c1C2(C)c1cccc(F)c1 (single isomer, unassigned) [618A]

IC50 [1, 3]: 5 to 20 µM
IC50 [2, 4]: 5 to 20 µM
Structure (SMILES): CC1(C)CC2=C(C(=O)N1)C(C)(c1cccc(S(C)(=O)=O)c1)c1cc(C3CC3)cnc1N2 (single isomer, unassigned) [647B]

IC50 [1, 5]: 0.1 to 1 µM
IC50 [2, 6]: 0.1 to 1 µM
Structure (SMILES): CCC1(c2cccc(-c3cncn3C(C)C)c2)C2=C(CC(C)(C)CC2=O)Nc2ncccc21 (single isomer, unassigned) [Compound 149B]

IC50 [1, 7]: 0.1 to 1 µM
IC50 [2, 8]: 0.1 to 1 µM
Structure (SMILES): CC1(C)CC(=O)C2=C(C1)Nc1ncc(F)cc1C2(C)c1cccc(-c2c(F)cncc2CC2CC2)c1 (single isomer, unassigned) [Compound 169A]

IC50 [1, 3]: 1 to 5 µM
IC50 [2, 4]: 5 to 20 µM
Structure (SMILES): CC(C)Oc1cccc(C2(C)C3=C(CC(C)(C)CC3=O)Nc3ncc(C(F)(F)F)cc32)c1 (single isomer, unassigned) [648A]

IC50 [1, 7]: 1 to 5 µM
IC50 [2, 8]: 1 to 5 µM
Structure (SMILES): CC1(C)CC(=O)C2=C(C1)Nc1ncc(C(F)(F)F)c(C#N)c1C2(C)c1ccccc1 (single isomer, unassigned) [Compound 137B]

IC50 [1, 3]: 0.1 to 1 µM
IC50 [2, 4]: 1 to 5 µM
Structure (SMILES): CC1(C)CC2=C(C(=O)N1)C(C)(c1ccccc1)c1c(ncc(C(F)F)c1C#N)N2 (single isomer, unassigned) [628B]

IC50 [1, 9]: ≤ 0.1 µM
IC50 [1, 7]: 1 to 5 µM
IC50 [2, 10]: ≤ 0.1 µM
IC50 [2, 8]: 1 to 5 µM
Structure (SMILES): CCc1ccnc2c1C(C)(c1ccccc1)C1=C(CC(C)(C)CC1=O)N2 (single isomer, unassigned) [Compound 112A]

IC50 [1, 3]: 1 to 5 µM
IC50 [2, 4]: 5 to 20 µM
Structure (SMILES): CC1(C)CC(=O)C2=C(C1)Nc1ncc(C(F)F)c(C#N)c1C2(C)c1ccccc1 (single isomer, unassigned) [627B]

IC50 [1, 5]: > 5 µM
IC50 [2, 6]: 1 to 5 µM
Structure (SMILES): CCC1(c2cccc(-c3ccnc(C)c3C)c2)C2=C(CC(C)(C)CC2=O)Nc2ncccc21 (single isomer, unassigned) [147 A]

IC50 [1, 3]: 0.1 to 1 µM
IC50 [2, 4]: 1 to 5 µM
Structure (SMILES): CC1(C)CC(=O)C2=C(Nc3ncc(C(F)F)c(C#N)c3[C@@]2(C)c2ccccc2)[C@@H]1F (single isomer, unassigned) [Compound 633B]

IC50 [1, 5]: > 5 µM
IC50 [2, 6]: > 5 µM
Structure (SMILES): CCC1(c2cccc(-c3ccnc(C)c3)c2)C2=C(CC(C)(C)CC2=O)Nc2ncccc21 (single isomer, unassigned) [Compound 1021A]

IC50 [1, 3]: 1 to 5 µM
IC50 [2, 4]: 5 to 20 µM
Structure (SMILES): CC1(C)CC(=O)C2=C(C1)Nc1ncc(I)c(Br)c1C2(C)c1ccccc1 (single isomer, unassigned) [657B]

IC50 [1, 3]: 5 to 20 µM
IC50 [2, 4]: 5 to 20 µM
Structure (SMILES): CC(C)c1cnc2c(c1C#N)C(C)(c1ccccc1)C1=C(CC(C)(C)CC1=O)N2 (single isomer, unassigned) [622B]

IC50 [1, 5]: > 5 µM
IC50 [2, 6]: 1 to 5 µM
Structure (SMILES): CCC1(c2cccc(-c3ccncc3OC)c2)C2=C(CC(C)(C)CC2=O)Nc2ncccc21 (single isomer, unassigned) [Compound 1028A]
